Measured values as given in patent US5512595A, “Substituted phenoxyisobutyric acids and esters” (Adir et Compagnie, priority 1993, dated 1996).
Where a name gives a salt, the structure may show the parent alone.

Key:
human LDL [1] = experiment: Modification (peroxidation) of human LDL by copper sulphate, MDA production; format: biochemical; settings: for IC50: inhibition of human LDL oxidation induced by copper sulphate (5.10^-6 M), 24 hours, MDA production, read-out: IC50 (M) Cu^2+ (converted); for activity compared with probucol or vitamin E in protecting human LDL: human LDL in vitro, modifications induced by copper sulphate and endothelial cells
Procedure: (§1) The activity of the compounds was tested in comparison with probucol and vitamin E taken as reference products.
1.1.1 Modification of LDL by copper sulphate
Human LDL are incubated for 24 hours in the presence of copper sulphate (5.10^-6 M) and in the absence or in the presence of the test compounds (10^-9 M to 10^-4 M).
After incubation, the peroxidation of the LDL is evaluated by agar gel electrophoresis and by the formation of one of the products of lipid peroxidation: malonic dialdehyde (MDA) (Parthasarathy S., Young S. G., Witztum J. L., Pittman R. C., and Steinberg D.; J. Clin. Invest. 77; 641-644, 1986).
(§2) The activity of the test compounds is evaluated by calculating the concentrations that reduce by 50% (IC50) the production of MDA compared with the control experiments without those compounds.

human LDL [2] = experiment: Modification (peroxidation) of human LDL by endothelial cells from the rabbit aorta, MDA production; format: cell-based; settings: for IC50: inhibition of human LDL oxidation induced by endothelial cells (rabbit aorta), 24 hours, MDA production
Procedure: as §1
1.1.2 Modification of LDL by endothelial cells
Human LDL are incubated for 24 hours in the presence of endothelial cells from the rabbit aorta (RECL B4 line provided by Professor Steinberg, U.S.A), and in the absence or in the presence of the test compounds (10^-9 M to 10^-4 M).
After incubation, the peroxidation of the LDL is evaluated by agar gel electrophoresis and by the formation of one of the products of lipid peroxidation: malonic dialdehyde (MDA) (Steinbrecher U. P., Parthasarathy S., Leake D. S., Witztum J. L., and Steinberg D.; Proc. Nat. Acad. Sci. U.S.A 81, 3883-3887, 1984).
as §2

LDL of Watanabe rabbits = experiment: Ex vivo study: peroxidation by copper sulphate of LDL from orally treated Watanabe rabbits, MDA production; format: in vivo
Procedure: as §1
2.1 Materials and methods
Watanabe rabbits (genetically hyperlipidaemic rabbits) weighing from 3 kg to 5 kg are used. […]
After treatment, the LDL of the animals are prepared by ultracentrifugation and subjected to oxidation with copper sulphate (5.10^-6 M). The lipid peroxidation of the LDL is evaluated after various periods of incubation with copper sulphate (from 2 to 24 hours) by measuring the formation of MDA.
Table B groups the MDA production values according to the period of incubation with copper sulphate of the LDL originating from control animals and from animals treated with the compound of Example 1 at different doses or with probucol.

Row | Compound | IC50 (human LDL [1]) [M] | IC50 (human LDL [2]) [µM] | activity compared with probucol or vitamin E in protecting human LDL (human LDL [1]) | further results
1 | vitamin E [reference compound] | > 0.0001 | 4 | – | –
2 | Cc1cc(SCCc2ccc(OC(C)(C)C(=O)O)cc2)c(C)c(C)c1O [Example 3, 2-{4-2-(4-hydroxy-2,3,5-trimethylphenylthio)ethyl!phenoxy}isobutyric acid] | 9e-08 | – | greater activity | –
3 | CC(C)(Sc1cc(C(C)(C)C)c(O)c(C(C)(C)C)c1)Sc1cc(C(C)(C)C)c(O)c(C(C)(C)C)c1 [PROBUCOL, probucol, reference compound] | 3e-06 | 4 | – | retardation of LDL peroxidation compared with control animals (LDL of Watanabe rabbits; 250 mg/kg/day): approximately 2 hours; MDA production (LDL of Watanabe rabbits; 250 mg/kg/day orally, 2 hours incubation of LDL with copper sulphate): 1.85 nmol/mg proteins; MDA production (LDL of Watanabe rabbits; 250 mg/kg/day orally, 4 hours incubation of LDL with copper sulphate): 3.50 nmol/mg proteins; MDA production (LDL of Watanabe rabbits; 250 mg/kg/day orally, 6 hours incubation of LDL with copper sulphate): 4.90 nmol/mg proteins; MDA production (LDL of Watanabe rabbits; 250 mg/kg/day orally, 8 hours incubation of LDL with copper sulphate): 12.26 nmol/mg proteins; MDA production (LDL of Watanabe rabbits; 250 mg/kg/day orally, 24 hours incubation of LDL with copper sulphate): 23.81 nmol/mg proteins
4 | Cc1c(C)c2c(c(C)c1O)CCC(C)(/C=C\Cc1ccc(OC(C)(C)C(=O)O)cc1)O2 (racemic) [Example 15, Tert-butylamine (Z)-(R,S)-2-{4-3-(6-hydroxy-2,5,7,8-tetramethylchroman-2-yl)prop-2-en-1-yl!phenoxy}isobutyrate] | 4e-08 | – | – | –
5 | Cc1c(C)c2c(c(C)c1O)CCC(C)(CCCc1ccc(OC(C)(C)C(=O)O)cc1)O2 (racemic) [Example 18, Tert-butylamine (R,S)-2-{4-3-(6-hydroxy-2,5,7,8-tetramethylchroman-2-yl)propyl!phenoxy}isobutyrate] | 6e-08 | – | – | –
6 | CC(C)(Oc1ccc(CCOc2cc(C(C)(C)C)c(O)c(C(C)(C)C)c2)cc1)C(=O)O [Example 10, 2-{4-2-(3,5-di-tert-butyl-4-hydroxyphenoxy)ethyl!phenoxy}isobutyric acid] | 2e-08 | 0.007 | – | –
7 | CC(C)(Oc1ccc(CCSc2cc(C(C)(C)C)c(O)c(C(C)(C)C)c2)cc1)C(=O)O [Example 1, 2-{4-2-(3,5-di-tert-butyl-4-hydroxyphenylthio)ethyl!phenoxy}isobutyric acid] | 5e-08 | 0.003 | greater activity | times more effective than is probucol (test using endothelial cells) (human LDL [2]; endothelial cells, compared with probucol): 1000 times; MDA production (LDL of Watanabe rabbits; 50 mg/kg/day orally, 3 days, 2 hours incubation of LDL with copper sulphate): 0.66 nmol/mg proteins; MDA production (LDL of Watanabe rabbits; 50 mg/kg/day orally, 3 days, 4 hours incubation of LDL with copper sulphate): 0.35 nmol/mg proteins; MDA production (LDL of Watanabe rabbits; 50 mg/kg/day orally, 3 days, 6 hours incubation of LDL with copper sulphate): 0.31 nmol/mg proteins; MDA production (LDL of Watanabe rabbits; 50 mg/kg/day orally, 3 days, 8 hours incubation of LDL with copper sulphate): 0.26 nmol/mg proteins; MDA production (LDL of Watanabe rabbits; 50 mg/kg/day orally, 3 days, 24 hours incubation of LDL with copper sulphate): 0.86 nmol/mg proteins; inhibition of LDL peroxidation induced by copper sulphate (LDL of Watanabe rabbits; from a dose of 50 mg/kg/day): completely inhibits
8 | CC(C)(Oc1ccc(CSc2cc(C(C)(C)C)c(O)c(C(C)(C)C)c2)cc1)C(=O)O [Example 4, 2-4-(3,5-di-tert-butyl-4-hydroxyphenylthiomethyl)phenoxy!isobutyric acid] | 3e-08 | – | greater activity | –
9 | Cc1cc(OCCc2ccc(OC(C)(C)C(=O)O)cc2)c(C)c(C)c1O [Example 9, 2-{4-2-(4-hydroxy-2,3,5-trimethylphenoxy)ethyl!phenoxy}isobutyric acid] | 5e-07 | – | – | –
10 | CC(C)(Oc1ccc(CCCSc2cc(C(C)(C)C)c(O)c(C(C)(C)C)c2)cc1)C(=O)O [Example 5, tert-butylamine salt of 2-{4-3-(3,5-di-tert-butyl-4-hydroxyphenylthio)propyl!phenoxy}isobutyric acid] | 4e-08 | – | greater activity | –
